Source: patent publication US5268462A, “Oleandomycin oximes” (Pliva Farmaceutska, priority 1990, dated 1993)
Values after ≈ are worked out from the molar mass of the structure shown.

Assays:
Format in all cases: cell-based
E. coli ATCC 10536 = experiment: Antibacterial in vitro activity (MIC), standard strain; details: Escherichia coli, ATCC10536; E. coli ATCC 10536, standard strain; read-out: Minimal Inhibitory Concentration (MIC)
Source text: (§1) The antibacterial in vitro activity was evidenced on a series of standard and clinically isolated strains. The results are expressed as Minimal Inhibitory Concentration (MIC; μg/mL) and represented hereinbelow in Tables 1 and 2.

[1] = system: Klebsiella pneum. NCTC-10499; experiment: as above; details: NCTC10499; Klebsiella pneum. NCTC-10499, standard strain; read-out: Minimal Inhibitory Concentration (MIC)
Source text: as §1

Pseud. aerug. NCTC-10490 = experiment: as above; details: Pseud. aerug. NCTC-10490, standard strain; read-out: Minimal Inhibitory Concentration (MIC)
Source text: as §1

Sarcina lutea ATCC-9341 = experiment: as above; details: Micrococcus luteus, ATCC9341; Sarcina lutea ATCC-9341, standard strain; read-out: Minimal Inhibitory Concentration (MIC)
Source text: as §1

[2] = system: Staph. aureus ATCC 6538-P; experiment: as above; details: Staphylococcus aureus, ATCC6538, read-out: Minimal Inhibitory Concentration (MIC)
Source text: as §1

[3] = system: Strept. faecalis ATCC-8043; experiment: as above; details: Enterococcus faecalis, ATCC8043; Strept. faecalis ATCC-8043, standard strain; read-out: Minimal Inhibitory Concentration (MIC)
Source text: as §1

H. Influenze 4028 = experiment: Antibacterial in vitro activity (MIC), clinical isolate; details: H. Influenze 4028, clinical isolate; read-out: Minimal Inhibitory Concentration (MIC)
Source text: as §1

Staph. aureus 10097 = experiment: as above; details: Staphylococcus aureus; Staph. aureus 10097, clinical isolate; read-out: Minimal Inhibitory Concentration (MIC)
Source text: as §1

Staph. aureus 10099 = experiment: as above; details: Staphylococcus aureus; Staph. aureus 10099, clinical isolate; read-out: Minimal Inhibitory Concentration (MIC)
Source text: as §1

Staph. saprophyt. 3947 = experiment: as above; details: Staph. saprophyt. 3947, clinical isolate; read-out: Minimal Inhibitory Concentration (MIC)
Source text: as §1

Strept. faecalis 10390 = experiment: as above; details: Enterococcus faecalis; Strept. faecalis 10390, clinical isolate; read-out: Minimal Inhibitory Concentration (MIC)
Source text: as §1

Strept. pneumoniae 4050 = experiment: as above; details: Streptococcus pneumoniae; Strept. pneumoniae 4050, clinical isolate; read-out: Minimal Inhibitory Concentration (MIC)
Source text: as §1

Sarcina lutea ATCC 9341 = experiment: Activity on Sarcina lutea ATCC 9341
Strept. pneumoniae = experiment: MIC (clinical isolates), Examples 1-3; details: Streptococcus pneumoniae
Source text: as §1

Strept. serol. group A = experiment: MIC (clinical isolates), Examples 1-3
Source text: as §1

Compound: COC1CC(OC2C(C)C(=O)OC(C)C(C)C(O)C(C)C(=NO)C(C)CC(C)C(OC3OC(C)CC(N(C)C)C3O)C2C)OC(C)C1O (single isomer, unassigned) [Ie, 8-methyl-oleandomycin oxime]
- MIC (E. coli ATCC 10536): 6.2 µg/mL (≈ 9 µM)
- MIC [1]: 50 µg/mL (≈ 72.6 µM)
- MIC (Pseud. aerug. NCTC-10490): 50 µg/mL (≈ 72.6 µM)
- MIC (Sarcina lutea ATCC-9341): 0.2 µg/mL (≈ 0.29 µM)
- MIC [2]: 0.2 µg/mL (≈ 0.29 µM)
- MIC [3]: 0.2 µg/mL (≈ 0.29 µM)
- MIC (H. Influenze 4028): 0.4 µg/mL (≈ 0.581 µM)
- MIC (Staph. aureus 10097): 0.4 µg/mL (≈ 0.581 µM)
- MIC (Staph. aureus 10099): 0.4 µg/mL (≈ 0.581 µM)
- MIC (Staph. saprophyt. 3947): 1.6 µg/mL (≈ 2.32 µM)
- MIC (Strept. faecalis 10390): 0.8 µg/mL (≈ 1.16 µM)
- MIC (Strept. pneumoniae 4050): 0.4 µg/mL (≈ 0.581 µM)
- Activity (Sarcina lutea ATCC 9341): 657 u/mg

Compound: COC1CC(OC2C(C)C(=O)OC(C)C(C)C(O)C(C)C(=NO)C3(CO3)CC(C)C(OC3OC(C)CC(N(C)C)C3O)C2C)OC(C)C1O (stereo not drawn) [Ia, OLEANDOMYCIN OXIME]
- MIC (Strept. pneumoniae): 0.5 µg/mL (≈ 0.711 µM)
- MIC (Strept. serol. group A): 0.5 µg/mL (≈ 0.711 µM)

Compound: COC1CC(OC2C(C)C(=O)OC(C)C(C)C=C(C)C(=NO)C3(CO3)CC(C)C(OC3OC(C)CC(N(C)C)C3O)C2C)OC(C)C1O (stereo not drawn) [Ib, ANHYDRO OLEANDOMYCIN OXIME]
- MIC (Strept. pneumoniae): 2 µg/mL (≈ 2.92 µM)
- MIC (Strept. serol. group A): 1 µg/mL (≈ 1.46 µM)

Compound: C=C1CC(C)C(OC2OC(C)CC(N(C)C)C2O)C(C)C(OC2CC(OC)C(O)C(C)O2)C(C)C(=O)OC(C)C(C)C(O)C(C)C1=NO (stereo not drawn) [Ic, 8-METHYLENE-OLEANDOMYCIN OXIME]
- MIC (Strept. pneumoniae): 1 µg/mL (≈ 1.46 µM)
- MIC (Strept. serol. group A): 1 µg/mL (≈ 1.46 µM)

Compound: CO[C@H]1C[C@H](O[C@H]2[C@H](C)[C@@H](O[C@@H]3O[C@H](C)C[C@H](N(C)C)[C@H]3O)[C@@H](C)C[C@@]3(CO3)C(=O)[C@H](C)[C@@H](O)[C@@H](C)[C@@H](C)OC(=O)[C@@H]2C)O[C@@H](C)[C@@H]1O [oleandomycin phosphate, reference compound]
- MIC (E. coli ATCC 10536): 25 µg/mL
- MIC [1]: > 50 µg/mL
- MIC (Pseud. aerug. NCTC-10490): > 50 µg/mL
- MIC (Sarcina lutea ATCC-9341): 0.2 µg/mL
- MIC [2]: 0.4 µg/mL
- MIC [3]: 0.8 µg/mL
- MIC (Staph. aureus 10097): 0.8 µg/mL
- MIC (Staph. aureus 10099): 0.8 µg/mL
- MIC (Staph. saprophyt. 3947): 1.6 µg/mL
- MIC (Strept. faecalis 10390): 3.1 µg/mL
- MIC (Strept. pneumoniae 4050): 1.6 µg/mL
